Measurements reported in ChEMBL document CHEMBL6078698, “Discovery of 6-Fluoro-5-{4-[(5-fluoro-2-methyl-3-oxo-3,4-dihydroquinoxalin-6-yl)methyl]piperazin-1-yl}-N-methylpyridine-2-carboxamide (AZD9574): A CNS-Penetrant, PARP1-Selective Inhibitor” (J Med Chem, 2024).
pIC50: −log10 of the molar value. ≈ marks a conversion by molar mass, not a printed value.

Legend:
[1] = Ratio of unbound drug concentration in brain to plasma of rat; type: ADME, cell-free; conditions: for Kp uu: brain and plasma (unbound), read-out: K(p,uu,brain)
[2] = tested on: MDR1 (P-gp), BCRP; assay: Efflux ratio in MDCK-MDR1-BCRP cells; type: ADME, cell-based, Canis lupus familiaris; conditions: dog
[3] = molecular target: hERG (KCNH2) (Homo sapiens, UniProt Q12809); assay: (§1) Inhibition of hERG transfected in CHO cells by electrophysiology; type: toxicity, cell-based; conditions: human, CHO cells transfected with hERG
Sequence of hERG (KCNH2) (Q12809 whole entry): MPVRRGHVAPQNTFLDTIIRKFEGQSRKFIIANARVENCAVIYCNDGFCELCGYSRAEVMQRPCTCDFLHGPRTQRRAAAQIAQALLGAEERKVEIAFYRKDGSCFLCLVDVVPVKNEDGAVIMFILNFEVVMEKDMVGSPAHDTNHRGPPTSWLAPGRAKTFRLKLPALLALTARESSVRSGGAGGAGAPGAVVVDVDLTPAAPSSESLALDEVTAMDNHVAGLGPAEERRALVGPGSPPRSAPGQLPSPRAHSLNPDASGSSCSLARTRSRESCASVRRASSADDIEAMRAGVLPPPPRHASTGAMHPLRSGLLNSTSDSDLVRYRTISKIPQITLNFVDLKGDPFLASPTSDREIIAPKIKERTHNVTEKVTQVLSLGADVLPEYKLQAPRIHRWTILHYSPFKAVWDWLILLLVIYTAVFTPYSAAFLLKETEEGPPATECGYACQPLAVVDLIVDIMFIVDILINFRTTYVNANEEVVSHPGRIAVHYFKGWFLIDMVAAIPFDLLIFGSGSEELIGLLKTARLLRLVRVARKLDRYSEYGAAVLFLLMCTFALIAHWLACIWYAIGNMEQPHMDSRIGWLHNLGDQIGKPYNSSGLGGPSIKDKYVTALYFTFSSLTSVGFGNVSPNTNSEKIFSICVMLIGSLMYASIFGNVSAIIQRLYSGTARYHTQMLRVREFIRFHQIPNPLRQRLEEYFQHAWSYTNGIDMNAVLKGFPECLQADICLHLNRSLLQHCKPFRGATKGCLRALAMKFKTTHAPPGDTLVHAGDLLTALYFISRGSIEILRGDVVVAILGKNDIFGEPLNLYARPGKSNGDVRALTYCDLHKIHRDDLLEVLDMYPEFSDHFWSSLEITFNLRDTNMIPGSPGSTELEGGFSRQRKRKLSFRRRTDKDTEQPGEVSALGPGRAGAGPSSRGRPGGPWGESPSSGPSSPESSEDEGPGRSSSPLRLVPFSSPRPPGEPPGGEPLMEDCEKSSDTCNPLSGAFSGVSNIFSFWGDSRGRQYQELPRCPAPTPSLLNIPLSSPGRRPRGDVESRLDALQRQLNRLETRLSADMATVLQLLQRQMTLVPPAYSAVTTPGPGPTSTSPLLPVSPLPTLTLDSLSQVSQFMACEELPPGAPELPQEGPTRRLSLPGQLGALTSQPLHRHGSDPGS

[4] = Inhibition of cell proliferation of human DLD-1 cells expressing BRCA2-/- incubated for 7 days by Sytox green dye based analysis; type: functional; conditions: DLD-1, 168 h
[5] = Lipophilicity, log D of compound at pH 7.4; type: physicochemical; conditions: buffer
[6] = Intrinsic clearance in human liver microsomes; type: ADME, Microsome; conditions: read-out: CLH
[7] = Solubility of compound at pH 7.4; type: physicochemical; conditions: buffer
[8] = molecular target: Poly [ADP-ribose] polymerase 2 (Homo sapiens, UniProt Q9UGN5); assay: Inhibition of N-terminal 6His-tagged full-length recombinant human PARP2 by fluorescence anisotropy assay
Sequence of Poly [ADP-ribose] polymerase 2 (Q9UGN5 whole entry): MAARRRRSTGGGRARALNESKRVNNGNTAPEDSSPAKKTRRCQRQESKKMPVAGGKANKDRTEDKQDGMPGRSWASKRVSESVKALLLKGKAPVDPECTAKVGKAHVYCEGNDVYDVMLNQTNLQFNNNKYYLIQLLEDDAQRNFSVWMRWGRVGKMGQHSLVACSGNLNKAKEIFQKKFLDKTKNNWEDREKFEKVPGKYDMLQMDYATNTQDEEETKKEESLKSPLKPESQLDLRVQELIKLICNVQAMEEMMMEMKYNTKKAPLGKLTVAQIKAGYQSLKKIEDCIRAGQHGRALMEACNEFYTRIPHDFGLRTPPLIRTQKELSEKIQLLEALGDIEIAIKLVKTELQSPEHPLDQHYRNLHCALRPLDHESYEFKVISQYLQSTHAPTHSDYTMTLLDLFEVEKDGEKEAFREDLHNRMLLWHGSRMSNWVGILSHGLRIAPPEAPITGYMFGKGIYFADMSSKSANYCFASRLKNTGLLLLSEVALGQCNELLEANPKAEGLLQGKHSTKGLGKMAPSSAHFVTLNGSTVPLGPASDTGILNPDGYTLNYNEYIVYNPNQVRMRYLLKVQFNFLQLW

[9] = molecular target: Poly [ADP-ribose] polymerase 1 (Homo sapiens, UniProt P09874); assay: Inhibition of N-terminal 6His-tagged full-length recombinant human PARP1 by fluorescence anisotropy assay
Sequence of Poly [ADP-ribose] polymerase 1 (P09874 whole entry): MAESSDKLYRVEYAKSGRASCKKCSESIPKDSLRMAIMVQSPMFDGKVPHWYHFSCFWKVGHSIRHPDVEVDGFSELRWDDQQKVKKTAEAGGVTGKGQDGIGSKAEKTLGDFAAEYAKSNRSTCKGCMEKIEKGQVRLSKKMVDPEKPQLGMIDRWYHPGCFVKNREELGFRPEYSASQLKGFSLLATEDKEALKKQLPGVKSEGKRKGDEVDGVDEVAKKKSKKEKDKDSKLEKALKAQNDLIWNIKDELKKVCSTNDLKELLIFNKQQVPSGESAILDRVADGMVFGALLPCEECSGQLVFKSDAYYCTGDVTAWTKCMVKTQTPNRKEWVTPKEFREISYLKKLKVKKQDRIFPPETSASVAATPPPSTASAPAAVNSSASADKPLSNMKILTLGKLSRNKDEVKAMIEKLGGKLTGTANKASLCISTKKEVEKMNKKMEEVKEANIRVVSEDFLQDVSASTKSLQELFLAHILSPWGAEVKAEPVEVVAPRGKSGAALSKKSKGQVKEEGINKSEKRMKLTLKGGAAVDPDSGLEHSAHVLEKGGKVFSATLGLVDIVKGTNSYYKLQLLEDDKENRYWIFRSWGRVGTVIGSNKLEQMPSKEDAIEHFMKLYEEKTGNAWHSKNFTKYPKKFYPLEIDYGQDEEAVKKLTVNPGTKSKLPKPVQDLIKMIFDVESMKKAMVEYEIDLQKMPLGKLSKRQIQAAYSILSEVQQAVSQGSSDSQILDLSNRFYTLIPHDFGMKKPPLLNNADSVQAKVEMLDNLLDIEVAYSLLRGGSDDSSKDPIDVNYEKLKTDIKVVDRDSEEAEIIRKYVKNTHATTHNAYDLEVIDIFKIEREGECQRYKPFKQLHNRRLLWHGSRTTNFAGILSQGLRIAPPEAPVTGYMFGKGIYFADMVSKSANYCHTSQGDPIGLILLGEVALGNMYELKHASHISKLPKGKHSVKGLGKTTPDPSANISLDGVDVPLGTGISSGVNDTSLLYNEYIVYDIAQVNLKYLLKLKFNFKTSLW

[10] = molecular target: Voltage-gated inwardly rectifying potassium channel KCNH2 (Homo sapiens, UniProt Q12809); assay: as §1; type: toxicity, cell-based
Sequence of Voltage-gated inwardly rectifying potassium channel KCNH2 (Q12809 whole entry): as the sequence (Q12809 whole entry) above

Row | SMILES | Kp uu [1] | efflux ratio [2] | logD [5] | microsomal CLint [6] [µL/min/mg] | solubility [7] [µM] | pIC50 [8] | pIC50 [9] | K(p,uu,brain) ([1]; brain) | pIC50 [3] | pIC50 [4] | pIC50 [10]
1 | C[C@]1(c2nc3c(C(N)=O)cccc3[nH]2)CCCN1 [VELIPARIB] | 0.19 | – | – | – | – | – | – | – | – | 5.89 | –
2 | C[C@]12CCCN1CC1=NNC(=O)c3cc(F)cc4[nH]c2c1c34 [PAMIPARIB] | 0.1 | – | – | – | – | 8.22 | – | – | – | 8.15 | –
3 | NC(=O)c1cccc2cn(-c3ccc([C@@H]4CCCNC4)cc3)nc12 [NIRAPARIB] | < 0.1 | – | – | – | – | – | – | – | – | 6.78 | –
4 | CNCc1ccc(-c2[nH]c3cc(F)cc4c3c2CCNC4=O)cc1 [RUCAPARIB] | < 0.1 | – | – | – | – | – | – | – | – | 7.41 | –
5 | Cn1ncnc1[C@H]1c2n[nH]c(=O)c3cc(F)cc(c23)N[C@@H]1c1ccc(F)cc1 [TALAZOPARIB] | < 0.1 | – | – | – | – | – | – | – | – | – | –

Continued, in another order:

Row | Kp uu [1] | efflux ratio [2] | logD [5] | microsomal CLint [6] [µL/min/mg] | solubility [7] [µM] | pIC50 [8] | pIC50 [9] | K(p,uu,brain) ([1]; brain) | SMILES | pIC50 [3] | pIC50 [4] | pIC50 [10]
6 | 0.1 | 2.8 | – | – | – | – | – | – | CCc1cc2ccc(CN3CCN(c4ccc(C(=O)NC)nc4)CC3)cc2[nH]c1=O | 4.68 | 8.40 | –
7 | 0.19 | 1.6 | 2.2 | < 3 | 11 (≈ 4.67 µg/mL) | – | – | – | CNC(=O)c1ccc(N2CCN(Cc3ccc4nc(C)c(=O)[nH]c4c3F)CC2)c(C)n1 | < 4.40 | 8.15 | –
8 | 0.2 | 1 | 3.3 | 19 | 9 (≈ 3.43 µg/mL) | < 4.17 | 7.96 | – | CCc1nc2ccc(CN3CCN(c4cnc(F)cc4C)CC3)cc2[nH]c1=O | – | 7.89 | 4.64
9 | < 0.1 | – | – | < 6 | – | – | – | – | CCc1cc2ncc(CN3CCN(c4ccc(C(=O)NC)nc4)CC3)cc2[nH]c1=O [SARUPARIB] | < 4.40 | – | –
10 | – | 2.2 | 2.9 | 10 | 13 (≈ 5.47 µg/mL) | – | – | – | CCc1nc2ccc(CN3CCN(c4ccc(C(=O)NC)nc4C)CC3)cc2[nH]c1=O | – | 8.70 | –
11 | – | 0.5 | 2.6 | < 3 | 9 (≈ 3.31 µg/mL) | 4.34 | 8.05 | – | CCc1nc2ccc(CN3CCN(c4ccc(F)nc4)CC3)cc2[nH]c1=O | – | 7.18 | < 4.40
12 | – | – | 2.6 | < 5 | < 11 | – | – | 0.43 | CCc1nc2ccc(CN3CCN(c4ccc(C(=O)NC)nc4F)CC3)c(F)c2[nH]c1=O | < 4.40 | 8.30 | –
